According to patent US20240317777A1, “NOVEL MACROCYCLIC AMINOPYRAZOLE COMPOUNDS AS CDK2 INHIBITORS” (Accutar Biotechnology Inc., priority 2023, published 2024):
Where two headings read alike, the source gives them in different places.

Legend:
CDK2-CYCLIN E1 = CDK2-CYCLIN E1 (Homo sapiens, UniProt P24941); test: CDK protein kinase inhibition by ADP-Glo assay, CDK2-CYCLIN E1; type: biochemical; details: ADP-Glo, 1000 μM ATP, read-out: CDK2-CYCLINE, IC50
How it was run: (§1)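 Enzyme reactions contain 1000 μM ATP and 5 mM MgCl2 in HEPES pH 7.5 with BSA, Triton X-100, DTT, orthovanadate and beta-glycerophosphate. They proceed at 22° C before ADP-Glo luminescent detection of ADP produced.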

CDK9-CYCLIN T1 = CDK9-CYCLIN T1 (Homo sapiens, UniProt P50750); test: CDK protein kinase inhibition by ADP-Glo assay, CDK9-CYCLIN T1; type: biochemical; details: for IC50: ADP-Glo, 1000 μM ATP, read-out: CDK9-CYCLINT1, IC50; for CDK2 Fold selectivity, CDK9: CDK2 versus CDK9
How it was run: as §1

CDK4-CYCLIN D1 = CDK4-CYCLIN D1 (Homo sapiens, UniProt P11802); test: CDK protein kinase inhibition by ADP-Glo assay, CDK4-CYCLIN D1; type: biochemical; details: for IC50: ADP-Glo, 1000 μM ATP, read-out: CDK4-CYCLIND1, IC50; for CDK2 Fold selectivity, CDK4: CDK2 versus CDK4
How it was run: as §1

[1] = system: CCNE1-amplified OVCAR3 cells; test: Cell growth inhibition of CCNE1-amplified OVCAR3 cells (CellTiter-Glo); type: cell-based; details: Homo sapiens, OVCAR-3, 144 h, 6 days
How it was run: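 Growth read-out was CellTiter-Glo luminescence, taken after 10 min at room temperature at the end of a 6-day compound exposure at 37 °C. Compounds were diluted from DMSO stocks across various concentrations.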

CDK6-CYCLIN D3 = CDK6-CYCLIN D3 (Homo sapiens, UniProt Q00534); test: CDK protein kinase inhibition by ADP-Glo assay, CDK6-CYCLIN D3; type: biochemical; details: for IC50: ADP-Glo, 1000 μM ATP, read-out: CDK6-CYCLIND3, IC50; for CDK2 Fold selectivity, CDK6: CDK2 versus CDK6
How it was run: as §1

[2] = system: Phospho-Rb (Ser807/811) in OVCAR3 cells; test: Phospho-Rb expression inhibition in OVCAR3 cells quantified by In Cell Western; type: cell-based; details: Homo sapiens, OVCAR-3, 24 hours, read-out: OVCAR-3 pRb IC50
How it was run: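 In-cell western: after 24 h compound exposure at 37° C, fixed OVCAR3 cells co-stained for pRb Ser807/811 (800 nm channel) and total Rb (680 nm channel), imaged by LI-COR Odyssey.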

CCNE1-normal SKOV3 cells = test: Cell growth inhibition of CCNE1-normal SKOV3 cells (CellTiter-Glo); type: cell-based; details: Homo sapiens, SK-OV-3, 144 h, 6 days
How it was run: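 Growth was measured by CellTiter-Glo luminescence after 6 days' compound exposure at 37 °C. Cells were plated one day before dosing at 1000 per well in medium with 10% FBS, and compounds were diluted from DMSO stocks.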

CDK1-CYCLIN B = CDK1-CYCLIN B (Homo sapiens, UniProt P06493); test: CDK protein kinase inhibition by ADP-Glo assay, CDK1-CYCLIN B; type: biochemical; details: for IC50: ADP-Glo, 1000 μM ATP, read-out: CDK1-CYCLINB, IC50; for CDK2 Fold selectivity, CDK1: CDK2 versus CDK1
How it was run: as §1

CDK9-CYCLIN T1, sequence (P50750 whole entry): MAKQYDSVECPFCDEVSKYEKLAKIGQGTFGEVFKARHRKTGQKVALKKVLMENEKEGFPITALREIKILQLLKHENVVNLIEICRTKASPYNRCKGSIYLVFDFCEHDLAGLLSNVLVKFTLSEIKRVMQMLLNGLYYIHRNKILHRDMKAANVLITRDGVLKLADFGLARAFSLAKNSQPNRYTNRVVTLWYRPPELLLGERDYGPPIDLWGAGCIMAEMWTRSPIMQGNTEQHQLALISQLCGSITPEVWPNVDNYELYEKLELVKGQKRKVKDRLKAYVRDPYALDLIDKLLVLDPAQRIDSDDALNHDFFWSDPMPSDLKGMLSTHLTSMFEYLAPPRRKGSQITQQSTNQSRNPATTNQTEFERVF
CDK9-CYCLIN T1, sequence (O60563 whole entry partner): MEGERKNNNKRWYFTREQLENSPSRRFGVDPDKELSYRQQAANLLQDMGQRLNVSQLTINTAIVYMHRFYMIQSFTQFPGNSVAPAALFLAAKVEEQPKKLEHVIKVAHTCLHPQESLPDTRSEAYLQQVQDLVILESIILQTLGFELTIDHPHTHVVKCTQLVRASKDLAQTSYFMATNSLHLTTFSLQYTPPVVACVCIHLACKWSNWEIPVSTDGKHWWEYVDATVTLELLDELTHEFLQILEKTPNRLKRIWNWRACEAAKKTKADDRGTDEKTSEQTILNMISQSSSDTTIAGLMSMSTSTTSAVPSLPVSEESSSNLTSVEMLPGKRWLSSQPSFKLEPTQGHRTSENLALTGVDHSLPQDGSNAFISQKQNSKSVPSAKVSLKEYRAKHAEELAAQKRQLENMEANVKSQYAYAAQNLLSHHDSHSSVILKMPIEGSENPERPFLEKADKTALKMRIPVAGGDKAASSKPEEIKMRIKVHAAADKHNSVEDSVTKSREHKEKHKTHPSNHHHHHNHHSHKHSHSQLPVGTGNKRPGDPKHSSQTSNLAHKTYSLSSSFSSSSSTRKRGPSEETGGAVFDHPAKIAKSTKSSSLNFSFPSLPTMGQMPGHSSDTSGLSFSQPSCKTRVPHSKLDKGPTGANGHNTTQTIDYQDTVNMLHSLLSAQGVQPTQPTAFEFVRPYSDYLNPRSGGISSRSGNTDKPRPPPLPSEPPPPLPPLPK
CDK6-CYCLIN D3, sequence (Q00534 whole entry): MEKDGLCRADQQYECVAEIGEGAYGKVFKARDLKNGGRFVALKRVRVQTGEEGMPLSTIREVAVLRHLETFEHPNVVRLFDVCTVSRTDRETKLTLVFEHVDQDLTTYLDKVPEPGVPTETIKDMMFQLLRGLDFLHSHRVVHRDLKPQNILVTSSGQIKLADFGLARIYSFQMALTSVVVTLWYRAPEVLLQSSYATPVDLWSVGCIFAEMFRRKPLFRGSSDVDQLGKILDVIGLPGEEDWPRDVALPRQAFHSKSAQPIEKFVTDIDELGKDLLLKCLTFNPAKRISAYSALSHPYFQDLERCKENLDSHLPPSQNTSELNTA
CDK6-CYCLIN D3, sequence (P30281 whole entry partner): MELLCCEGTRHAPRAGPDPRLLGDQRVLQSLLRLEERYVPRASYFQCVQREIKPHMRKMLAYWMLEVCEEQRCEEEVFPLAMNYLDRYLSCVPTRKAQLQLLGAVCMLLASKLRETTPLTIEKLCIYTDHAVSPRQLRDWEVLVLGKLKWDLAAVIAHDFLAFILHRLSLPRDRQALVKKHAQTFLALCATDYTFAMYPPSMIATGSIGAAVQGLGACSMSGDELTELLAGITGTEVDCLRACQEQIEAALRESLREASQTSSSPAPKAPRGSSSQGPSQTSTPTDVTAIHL
CDK4-CYCLIN D1, sequence (P11802 whole entry): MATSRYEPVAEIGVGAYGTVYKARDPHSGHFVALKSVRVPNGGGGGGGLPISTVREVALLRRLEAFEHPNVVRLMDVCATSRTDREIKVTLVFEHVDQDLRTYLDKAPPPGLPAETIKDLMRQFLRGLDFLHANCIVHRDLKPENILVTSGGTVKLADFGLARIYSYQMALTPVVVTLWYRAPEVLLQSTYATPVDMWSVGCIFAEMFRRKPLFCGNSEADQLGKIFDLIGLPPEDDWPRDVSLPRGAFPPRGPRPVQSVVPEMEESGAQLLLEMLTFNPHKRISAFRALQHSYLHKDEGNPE
CDK4-CYCLIN D1, sequence (P24385 whole entry partner): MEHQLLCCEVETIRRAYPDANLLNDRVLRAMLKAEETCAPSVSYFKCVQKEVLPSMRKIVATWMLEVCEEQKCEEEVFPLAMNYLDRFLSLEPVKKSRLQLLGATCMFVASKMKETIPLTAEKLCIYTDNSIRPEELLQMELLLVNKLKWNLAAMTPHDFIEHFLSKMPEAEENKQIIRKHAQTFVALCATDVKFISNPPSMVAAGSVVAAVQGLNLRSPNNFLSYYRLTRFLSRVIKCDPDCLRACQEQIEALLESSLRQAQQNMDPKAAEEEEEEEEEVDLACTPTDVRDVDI
CDK1-CYCLIN B, sequence (P06493 whole entry): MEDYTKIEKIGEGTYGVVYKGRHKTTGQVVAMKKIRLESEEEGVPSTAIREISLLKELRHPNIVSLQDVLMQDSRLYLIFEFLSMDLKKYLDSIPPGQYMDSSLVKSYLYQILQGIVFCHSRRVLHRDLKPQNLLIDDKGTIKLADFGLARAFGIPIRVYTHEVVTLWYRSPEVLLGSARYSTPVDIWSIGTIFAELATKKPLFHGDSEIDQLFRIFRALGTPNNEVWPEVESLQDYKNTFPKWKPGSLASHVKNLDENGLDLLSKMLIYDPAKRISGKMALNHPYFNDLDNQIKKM
CDK1-CYCLIN B, sequence (P14635 whole entry partner): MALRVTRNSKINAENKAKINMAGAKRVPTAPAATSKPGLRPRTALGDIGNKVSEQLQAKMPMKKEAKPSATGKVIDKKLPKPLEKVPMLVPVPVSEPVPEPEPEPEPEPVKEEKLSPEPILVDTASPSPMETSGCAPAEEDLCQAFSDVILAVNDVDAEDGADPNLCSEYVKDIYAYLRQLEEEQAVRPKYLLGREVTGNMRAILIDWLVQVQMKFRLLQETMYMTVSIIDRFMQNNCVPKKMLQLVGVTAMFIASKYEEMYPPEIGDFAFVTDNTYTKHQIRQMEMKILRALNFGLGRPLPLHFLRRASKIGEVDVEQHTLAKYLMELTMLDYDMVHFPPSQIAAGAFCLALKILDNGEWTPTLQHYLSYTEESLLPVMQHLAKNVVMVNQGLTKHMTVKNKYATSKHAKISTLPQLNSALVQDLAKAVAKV

Row | IC50 (CDK2-CYCLIN E1; Table 19) [nM] | IC50 (CDK9-CYCLIN T1; Table 19) [nM] | CDK2 Fold selectivity, CDK9 (CDK9-CYCLIN T1; Table 20) | IC50 (CDK4-CYCLIN D1; Table 19) [nM] | CDK2 Fold selectivity, CDK4 (CDK4-CYCLIN D1; Table 20) | IC50 [1] [nM] | IC50 (CDK6-CYCLIN D3; Table 19) [nM] | CDK2 Fold selectivity, CDK6 (CDK6-CYCLIN D3; Table 20) | IC50 [2] [nM] | IC50 (CDK1-CYCLIN B; Table 19) [nM] | CDK2 Fold selectivity, CDK1 (CDK1-CYCLIN B; Table 20) | Compound | IC50 (CCNE1-normal SKOV3 cells) [nM] | further results
1 | 10 to 50 | > 500 | D (D, >20 and ≤50) | > 500 | E (E, <20) | 50 to 250 | > 500 | D (D, >20 and ≤50) | 10 to 50 | 100 to 500 | E (E, <20) | C[C@@H]1CCC#Cc2cc(ccn2)Nc2cc(n[nH]2)[C@H]2CC[C@H](C2)OC(=O)N1 [Compound 137, (1^1S,1^3R,2^4Z,9R)-9-methyl-2^1H-12-oxa-3,10-diaza-4(4,2)-pyridina-2(3,5)-pyrazola-1(1,3)-cyclopentanacyclododecaphan-5-yn-11-one] | > 1250 | –
2 | 50 to 100 | 100 to 500 | E (E, <20) | 100 to 500 | E (E, <20) | 50 to 250 | 100 to 500 | E (E, <20) | 10 to 50 | 100 to 500 | E (E, <20) | C[C@@H]1CC/C=C/c2cc(ccn2)Nc2cc(n[nH]2)[C@H]2CC[C@H](C2)OC(=O)N1 [Compound 126, (1^1S,1^3R,2^4Z,5E,9R)-9-methyl-2^1H-12-oxa-3,10-diaza-4(4,2)-pyridina-2(3,5)-pyrazola-1(1,3)-cyclopentanacyclododecaphan-5-en-11-one] | 250 to 1250 | –
3 | – | – | – | – | – | ≤ 2 | – | – | ≤ 2 | – | – | O=C1NC23CC(C/C=C/c4cc(ccn4)Nc4cc(n[nH]4)[C@H]4CC[C@H](C4)O1)(C2)C3 [Compound 107, (11S,13R,24Z,5E)-21H-11-oxa-3,9-diaza-4(4,2)-pyridina-2(3,5)-pyrazola-8(1,3)-bicyclo[1.1.1]pentana-1(1,3)-cyclopentanacycloundecaphan-5-en-10-one] | 10 to 50 | IC50 (CDK2-CYCLIN E1; Table 17): ≤ 10 nM; IC50 (CDK9-CYCLIN T1; Table 17): ≤ 10 nM; CDK2 Fold selectivity, CDK9 (CDK9-CYCLIN T1; Table 18): E (E, <20); IC50 (CDK4-CYCLIN D1; Table 17): 10 to 50 nM; CDK2 Fold selectivity, CDK4 (CDK4-CYCLIN D1; Table 18): E (E, <20); IC50 (CDK6-CYCLIN D3; Table 17): 10 to 50 nM; CDK2 Fold selectivity, CDK6 (CDK6-CYCLIN D3; Table 18): E (E, <20); IC50 (CDK1-CYCLIN B; Table 17): ≤ 10 nM; CDK2 Fold selectivity, CDK1 (CDK1-CYCLIN B; Table 18): E (E, <20)
